# Results reported in patent US20250339447A1, “19-NOR C3,3-DISUBSTITUTED C21-N-PYRAZOLYL STEROID AND METHODS OF USE THEREOF” (Sage Therapeutics, Inc., priority 2018, published 2025).
# Columns and labels:
# [1] = test system: adult patients diagnosed with MDD (MADRS total score ≥32 and HAM-D total score ≥22); assay: Double-blind, randomized placebo-controlled Phase 3 study in Major Depressive Disorder (Example 5); assay type: in vivo, human; details: for overall incidence of patients who experienced AEs: 14-day treatment period and 28-day follow up, placebo 48.9%; for Fatigue incidence: placebo 2.6%; for Sedation incidence / treatment emergent AEs leading to study drug discontinuation: placebo 3.2%; for Dizziness incidence: placebo 3.7%; for Somnolence incidence: placebo 4.2%; for Nausea incidence: placebo 4.7%; for Diarrhea incidence: placebo 5.3%; for Headache incidence: treatment and 28-day follow up, placebo 7.4%
# Description: Compound 1 was evaluated in a double-blind, randomized placebo-controlled Phase 3 study in Major Depressive Disorder (MDD). The evaluated the efficacy, safety and pharmacokinetics of Compound 1 in adult patients diagnosed with MDD (MADRS total score ≥32 and a HAM-D total score ≥22).
# Compound 1 was administered to a patient, either in 20 mg daily doses once a day for 14 days or 30 mg once a day for 14 days.
# Post-hoc analyses were conducted to evaluate the effects of performance factors of Compound 1 in the primary analysis, in patients with measurable drug concentrations, in patients with HAM-D≥24, and in patients with measurable drug concentrations and HAM-D≥24, and including the primary outcome at Day 15 (FIG. 11).
# subjects with MDD [2] = assay: Phase 2 study in subjects with MDD (dose justification); assay type: in vivo, human; details: 30 mg per day
# Text: (§1) Dose adjustments to 20-mg of Compound 1 were permitted; 20-mg of Compound 1 was anticipated to be well tolerated as it was lower than the maximum tolerated dose level.
# subjects with MDD [3] = assay: HAM-D course to Day 42 after a Compound 1 treatment cycle (source study not given); assay type: in vivo, human
# Text: Because of this, most subjects were eligible (i.e., PHQ-9 ≥10 and HAM-D ≥20 confirmed over 2 weeks) for a Compound 1 treatment cycle when needed; a 2-week period was required to establish a new MDE (DSM-5).
# [4] = Previous clinical trials, morning versus evening administration; assay type: in vivo, human
# Text: as §1
# [5] = test system: synaptic and extrasynaptic GABAA receptors; assay: Modulation of GABAA receptors; details: stated in background
# [6] = test system: female subjects diagnosed with severe postpartum depression; assay: Placebo-controlled study of Compound 1 capsules in severe postpartum depression (Example 1); assay type: in vivo, human
# Description: Compound 1 was investigated for use in subjects with depression. Female subjects (18-65 years old) diagnosed with severe postpartum depression (PDD) with a HAM-D total score of greater than or equal to 26 at screening and Day 1 were used in the investigation. The subjects were dosed once per day with capsules containing 30 mg of Compound 1. The dose could be adjusted to capsules containing 20 mg of Compound 1 if the 30 mg dose was not tolerated. Subjects not dosed with Compound 1 were dosed with a placebo. In total, 78 subjects were treated with Compound 1 at 30 mg and 73 subjects were treated with placebo.
# Assuming a 2-sided test at an alpha level of 0.05, a sample size of approximately 65 evaluable subjects per treatment group provided 90% power to detect a placebo-adjusted treatment difference of approximately 4 points in the primary endpoint, change from baseline in HAM-D total score at Day 15 assuming standard deviation (SD) of 7 points. The change from baseline in the HAM-D total score was analyzed using a mixed effects model for repeated measures (MMRM). The model included the change from baseline at each visit as the dependent variable. The main comparison was (difference in least mean square [LSMEAN]) between Compound 1 Capsules and placebo at the 15-day timepoint.
# For Model-based point estimates (i.e., LSMEAN, 95% confidence intervals, and p-values), an unstructured covariance structure was used to model the within-subject errors. If there was a convergence issue with the unstructured covariance model, Toeplitz, compound symmetry or Autoregressive (1) (AR[1]) covariance structure was used, following this sequence until convergence was achieved. […] When the covariance structure was not UN, the sandwich estimator for the variance-covariance matrix was derived, using the EMPIRICAL option in the PROC MIXED statement in SAS.
# Similarly, an MMRM was used for the analysis of the following variables: changes from baseline in MADRS total score and HAM-A total score, and select individual item and subscale scores. For each model, the comparison of interest was between Compound 1 Capsules and matching placebo at the 15-day time point. Model-based point estimates (i.e., LS means), 95% confidence intervals, and p-values were reported.
# [7] = Day 42, among subjects achieving remission or response at Day 15
structure (smiles),measurement,setting,value
C[C@@]1(O)CC[C@H]2[C@H](CC[C@@H]3[C@@H]2CC[C@]2(C)[C@@H](C(=O)Cn4cc(C#N)cn4)CC[C@@H]32)C1 [Compound 1],tolerability in the trial,[1]; 20 mg and 30 mg,generally well tolerated
same,separation from placebo,[1]; 20 mg once a day for 14 days,did not separate from placebo
same,overall incidence of patients who experienced AEs,[1]; 20 mg,50.0%
same,patients reporting SAEs during follow-up,"[1]; 20 mg, complications of cocaine ingestion, Day 39",one
same,Fatigue incidence,[1]; 20 mg,1.6%
same,Sedation incidence,[1]; 20 mg,5.9%
same,treatment emergent AEs leading to study drug discontinuation,[1]; 20 mg,1.6%
same,Dizziness incidence,[1]; 20 mg,7.4%
same,Somnolence incidence,[1]; 20 mg,5.9%
same,Nausea incidence,[1]; 20 mg,5.3%
same,Diarrhea incidence,[1]; 20 mg,5.9%
same,Headache incidence,[1]; 20 mg,11.2%
same,"HAM-D total score, LS Mean Difference from placebo","[1]; 30 mg (n=166) vs placebo (n=157), Day 3, p=0.016",−1.6
same,reduction in depressive symptoms in the HAM-D total score,"[1]; 30 mg once a day for 14 days, Day 15 (primary endpoint), placebo 11.2",12.6
same,"HAM-D total score, LS Mean Difference, post-hoc","[1]; 30 mg vs placebo, Day 15, patients with HAM-D≥24, p=0.032",−2.3
same,"HAM-D total score, LS Mean Difference from placebo","[1]; 30 mg, Day 8, p=0.008",−2.1
same,"HAM-D total score, LS Mean Difference from placebo","[1]; 30 mg, Day 12, p=0.018",−2.1
same,"HAM-D total score, LS Mean Difference from placebo","[1]; 30 mg, Day 15, p=0.115",−1.4
same,"change from baseline in HAM-D total score, post-hoc","[1]; 30 mg, Day 15, patients with HAM-D≥24 (n=124), placebo −11.4",−13.7
same,"change from baseline in HAM-D total score, post-hoc","[1]; 30 mg, Day 15, patients with measurable drug concentrations (n=151), placebo −11.2",−13.0
same,"change from baseline in HAM-D total score, post-hoc","[1]; 30 mg, Day 15, patients with measurable drug concentrations and HAM-D≥24 (n=115), placebo −11.4",−14.0
same,"HAM-D total score, LS Mean Difference from placebo","[1]; 30 mg, Day 42, p=0.807",−0.5
same,change from baseline in HAM-D total score,"[1]; 30 mg, Day 42, placebo −11.7",−11.9
same,overall incidence of patients who experienced AEs,[1]; 30 mg,54.2%
same,Fatigue incidence,[1]; 30 mg,6.8%
same,Sedation incidence,[1]; 30 mg,4.7%
same,treatment emergent AEs leading to study drug discontinuation,[1]; 30 mg,2.1%
same,Dizziness incidence,[1]; 30 mg,5.7%
same,Somnolence incidence,[1]; 30 mg,6.8%
same,Nausea incidence,[1]; 30 mg,3.6%
same,Diarrhea incidence,[1]; 30 mg,6.3%
same,patients with serious adverse events (SAEs) during treatment,"[1]; 30 mg, suicide attempt Day 5, bile duct stone after Day 2",Two
same,patients reporting SAEs during follow-up,"[1]; 30 mg, syncope and associated injuries, Day 28",one
same,Headache incidence,[1]; 30 mg,6.3%
same,AEs of loss of consciousness,[1]; all groups,no AEs of loss of consciousness
same,suicidal ideation or behavior by Columbia Suicide Severity Rating Scale (C-SSRS),[1]; compared to baseline,no signal for increased suicidal ideation or suicidal behavior
same,depressive symptoms in long-term follow-up,"[1]; patients who completed long-term follow-up up to 6 months, preliminary data",maintenance of improvement in depressive symptoms
same,efficacy and tolerability of the dose level,subjects with MDD [2],efficacious and well-tolerated
same,subjects achieving remission or response,subjects with MDD [3]; Day 15,78.6%
same,subjects with HAM-D score of 16 to 21,subjects with MDD [3]; [7],18.2%
same,subjects with HAM-D ≥22,subjects with MDD [3]; [7],6.1%
same,adverse effect observed,[4]; administered in the morning,sedation/somnolence
same,tolerability,[4]; given in the evening,improved tolerability
same,mode of action at GABAA receptors,[5],positive allosteric modulator
same,overall efficacy conclusion,"[6]; 30 mg once a day for 15 days, compared to placebo",effective at treating postpartum depression
same,mean decrease from baseline in HAM-D total score,"[6]; 30 mg once daily, Day 15, mean baseline 28.4 (2.09), placebo −13.6 (8.31)",−18.0 (8.36)
same,model-based between treatment group difference in HAM-D total score change (95% CI),"[6]; 30 mg vs placebo, Day 15, MMRM, p 0.0029","−4.2 (−6.9, −1.5)"
same,model-based between treatment group difference in HAM-A total score change (95% CI),"[6]; 30 mg vs placebo, Day 15, p 0.0063","−3.90 (−6.7, −1.1)"
same,model-based between treatment group difference in MADRS total score change (95% CI),"[6]; 30 mg vs placebo, Day 15, p=0.0182","−4.6 (−8.3, −0.8)"
same,"CGI-I response, model-based odds ratio (95% CI)","[6]; 30 mg vs placebo, Day 15, p=0.0280","2.15 (1.09, 4.27)"
same,"HAM-D response, model-based odds ratio (95% CI)","[6]; 30 mg vs placebo, p=0.0050","2.63 (1.34, 5.16)"
same,"HAM-D remission, model-based odds ratio (95% CI)","[6]; 30 mg vs placebo, p=0.0122","2.50 (1.22, 5.11)"
same,CGI-I response rate,"[6]; 30 mg, Day 15, 53/74 subjects, placebo 38/73 (52.1%)",71.6%
same,mean decrease from baseline in MADRS total score,"[6]; 30 mg, Day 15, baseline 34.9 (4.41), placebo −17.7 (11.72)",−22.0 (11.64)
same,mean decrease from baseline in HAM-A total score,"[6]; 30 mg, Day 15, mean baseline 26.1 (5.88), placebo −12.9 (8.57)",−16.5 (9.51)
same,HAM-D remission rate,"[6]; 30 mg, 33/74 subjects, placebo 17/73 (23.3%)",44.6%
same,HAM-D response rate,"[6]; 30 mg, 53/74 subjects, placebo 35/73 (47.9%)",71.6%
